Test results as given in PMC12504763, “Antiproliferation, 3D-multicellular spheroid and VEGFR-2 inhibitory properties of spiroindolin-2-ones with phosphonate function” (Scientific Reports, 2025).
Where “and” joins values, the source holds several entries; their conditions need not be identical. Identical values can stand only once. Like-named read-outs stand apart in the source and are kept apart here.

Assays:
[1] = test system: RPE1 (normal human immortalized retinal pigment epithelial cell line); assay: cells; format: cell-based; details: for IC50: Homo sapiens, RPE-1, MTT, normal RPE1 cell, read-out: IC50, μM ± SEM RPE1
TNF-α [2] = assay: TNF-α inhibitory properties (ELISA), MCF7 cell lysate; format: cell-based, human; details: at 10 μM; for TNF-α pg/mL (± SEM) MCF7: control 83.26 ± 1.1
TNF-α [3] = assay: TNF-α inhibitory properties (ELISA), HCT116 cell lysate; format: cell-based, human; details: at 10 μM; for TNF-α pg/mL (± SEM) HCT116: control 95.74 ± 0.5
[4] = test system: PaCa2 (pancreatic) cancer cell line; assay: 2D-monolayer antiproliferation (MTT) against PaCa2; format: cell-based, human; details: for 1/(observed property): 1/observed IC50 (μM), PaCa2; for IC50: Homo sapiens, PaCa-2, MTT, 72 h incubation, PaCa2 pancreatic, read-out: IC50, μM ± SEM PaCa2; for SI (selectivity index) PaCa2: IC50 of RPE1 normal cell/IC50 of PaCa2
TNF-α [5] = assay: TNF-α inhibitory properties (ELISA), PaCa2 cell lysate; format: cell-based, human; details: for TNF-α % inhibition PaCa2 / TNF-α pg/mL (± SEM) PaCa2: at 10 μM; for TNF-α pg/mL (± SEM) PaCa2: control 111.8 ± 2.0
COX-2 = target: T1, COX-2 (Homo sapiens, UniProt P35354); assay: biochemical; details: for inhibition at 10 µM: 3 replicates, read-out: % Inhibition of COX-2 ± SEM; for SI (selectivity index, COX-2/COX-1): at 10 μM
T1 construct: purchased BioVision incorporated USA K548–100
T1 sequence (P35354 18-604): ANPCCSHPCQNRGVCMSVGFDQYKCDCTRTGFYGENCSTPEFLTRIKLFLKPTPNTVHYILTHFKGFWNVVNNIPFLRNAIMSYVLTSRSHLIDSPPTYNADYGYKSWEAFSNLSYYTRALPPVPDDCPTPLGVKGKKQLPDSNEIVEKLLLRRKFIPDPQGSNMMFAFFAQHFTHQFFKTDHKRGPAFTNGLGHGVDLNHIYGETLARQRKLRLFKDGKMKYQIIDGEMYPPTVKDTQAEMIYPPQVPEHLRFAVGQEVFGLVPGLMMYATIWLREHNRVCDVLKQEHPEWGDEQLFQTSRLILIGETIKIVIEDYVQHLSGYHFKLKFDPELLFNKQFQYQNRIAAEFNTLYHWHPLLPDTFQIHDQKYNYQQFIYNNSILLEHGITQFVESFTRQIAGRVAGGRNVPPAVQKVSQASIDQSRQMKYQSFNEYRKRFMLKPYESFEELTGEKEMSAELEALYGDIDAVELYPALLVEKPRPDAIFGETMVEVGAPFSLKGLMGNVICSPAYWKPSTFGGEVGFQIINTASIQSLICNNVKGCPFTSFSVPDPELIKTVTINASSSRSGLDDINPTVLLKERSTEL

[6] = test system: HCT116 (colon) cancer cell line; assay: 2D-monolayer antiproliferation (MTT) against HCT116; format: cell-based, human; details: for IC50: Homo sapiens, HCT-116; for SI (selectivity index) HCT116: IC50 of RPE1 normal cell/IC50 of HCT116
VEGFR-2 [7] = target: T2, VEGFR-2 (Homo sapiens, UniProt P35968); assay: cell-based; format: cell-based; details: for inhibition at 10 µM: PaCa-2, PaCa2; for VEGFR-2 pg/mL ± SEM PaCa2: at 10 μM, control 326.80 ± 1.9
T2 construct: endogenous in cells; host or cells: HCT116, PaCa2, MCF7 (human cancer cell lines, ATCC origin)
T2 sequence (P35968 20-1356): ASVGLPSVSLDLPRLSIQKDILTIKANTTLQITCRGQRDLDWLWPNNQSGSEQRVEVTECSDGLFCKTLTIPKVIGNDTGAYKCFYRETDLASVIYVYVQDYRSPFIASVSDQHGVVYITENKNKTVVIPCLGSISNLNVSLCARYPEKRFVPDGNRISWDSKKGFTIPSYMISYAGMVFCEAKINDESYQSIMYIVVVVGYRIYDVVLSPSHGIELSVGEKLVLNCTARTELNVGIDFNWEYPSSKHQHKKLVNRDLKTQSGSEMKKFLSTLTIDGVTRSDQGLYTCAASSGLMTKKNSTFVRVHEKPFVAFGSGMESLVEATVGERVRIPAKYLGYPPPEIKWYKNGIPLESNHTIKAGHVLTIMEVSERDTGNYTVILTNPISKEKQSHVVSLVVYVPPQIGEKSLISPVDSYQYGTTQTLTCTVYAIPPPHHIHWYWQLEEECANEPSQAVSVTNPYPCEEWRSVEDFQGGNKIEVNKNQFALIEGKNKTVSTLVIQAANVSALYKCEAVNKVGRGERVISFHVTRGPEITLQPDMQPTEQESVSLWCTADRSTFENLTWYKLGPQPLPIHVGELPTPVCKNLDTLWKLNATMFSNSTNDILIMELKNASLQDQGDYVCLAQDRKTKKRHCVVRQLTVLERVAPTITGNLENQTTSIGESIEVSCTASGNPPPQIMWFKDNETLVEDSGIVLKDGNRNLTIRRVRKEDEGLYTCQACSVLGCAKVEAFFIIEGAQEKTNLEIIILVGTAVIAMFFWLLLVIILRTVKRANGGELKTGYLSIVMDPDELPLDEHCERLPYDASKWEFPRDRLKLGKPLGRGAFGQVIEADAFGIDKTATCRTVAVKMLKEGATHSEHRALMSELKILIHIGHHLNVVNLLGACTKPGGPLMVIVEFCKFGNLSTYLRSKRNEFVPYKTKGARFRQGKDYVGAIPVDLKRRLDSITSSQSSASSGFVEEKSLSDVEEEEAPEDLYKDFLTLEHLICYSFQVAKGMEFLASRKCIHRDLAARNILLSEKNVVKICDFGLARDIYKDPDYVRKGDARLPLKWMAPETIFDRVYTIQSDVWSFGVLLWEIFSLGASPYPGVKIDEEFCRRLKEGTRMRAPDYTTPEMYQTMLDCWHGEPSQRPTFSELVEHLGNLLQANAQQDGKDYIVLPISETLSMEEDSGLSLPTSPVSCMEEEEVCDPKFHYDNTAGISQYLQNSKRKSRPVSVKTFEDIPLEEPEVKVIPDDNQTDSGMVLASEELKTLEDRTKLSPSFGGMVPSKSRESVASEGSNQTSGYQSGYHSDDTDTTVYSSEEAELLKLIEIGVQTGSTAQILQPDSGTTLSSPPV

COX-1 = target: T3, COX-1 (Ovis aries, UniProt P05979); assay: biochemical; details: 3 replicates, read-out: % Inhibition of COX-1 ± SEM
T3 construct: purchased BioVision incorporated USA K548–100
T3 sequence (P05979 25-600): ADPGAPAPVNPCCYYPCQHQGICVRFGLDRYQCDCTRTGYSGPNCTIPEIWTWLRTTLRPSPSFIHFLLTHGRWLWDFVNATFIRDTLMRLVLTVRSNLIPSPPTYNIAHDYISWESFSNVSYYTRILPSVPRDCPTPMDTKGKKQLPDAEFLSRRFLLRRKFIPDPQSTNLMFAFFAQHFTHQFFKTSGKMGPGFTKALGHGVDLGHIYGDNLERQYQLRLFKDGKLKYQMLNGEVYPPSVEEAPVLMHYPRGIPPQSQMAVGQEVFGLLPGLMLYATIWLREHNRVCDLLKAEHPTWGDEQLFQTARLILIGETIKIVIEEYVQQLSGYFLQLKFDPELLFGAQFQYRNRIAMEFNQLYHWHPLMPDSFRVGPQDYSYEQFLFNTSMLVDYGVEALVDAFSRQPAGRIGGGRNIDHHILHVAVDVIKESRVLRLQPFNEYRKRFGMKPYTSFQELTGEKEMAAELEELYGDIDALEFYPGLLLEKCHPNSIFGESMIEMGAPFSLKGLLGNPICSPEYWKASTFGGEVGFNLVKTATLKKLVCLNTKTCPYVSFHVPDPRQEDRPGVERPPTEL

[8] = test system: A549 (lung) cancer cell line; assay: 2D-monolayer antiproliferation (MTT) against A549; format: cell-based, human; details: for IC50: Homo sapiens, MTT, 72 h incubation, A549 lung, read-out: IC50, μM ± SEM A549
VEGFR-2 [9] = target: T2, VEGFR-2; assay: cell-based; format: cell-based; details: for inhibition at 10 µM: HCT-116, HCT116; for VEGFR-2 pg/mL ± SEM HCT116: at 10 μM, control 317.80 ± 3.5
[10] = test system: MCF7 (breast) cancer cell line; assay: 2D-monolayer antiproliferation (MTT) against MCF7; format: cell-based, human; details: for IC50: Homo sapiens, MTT, 72 h incubation, MCF7 breast, read-out: IC50, μM ± SEM MCF7; for SI (selectivity index) MCF7: IC50 of RPE1 normal cell/IC50 of MCF7
CAM blood vessel network = assay: Chick chorioallantoic membrane (CAM) anti-angiogenic assay; format: in vivo, chicken; details: 20 μL of 660 μM, 3 days
Experimental: CAM assay is an established xenograft technique for investigating the angiogenic effect due to the high resemblance of the human vascularized epithelium basement membrane with that of the chorioallantoic layer containing mainly type IV collagen[84]–[86].
Fig. 10 Images of light microscopy for anti-angiogenic evaluation of the tested compounds using CAM assay. […] The glass slide was placed on the surface of the CAM blood vessel network and left in an incubator at 37 °C for 3 days. The CAM blood vessel network was carefully cut and imaged under a light microscope (40 × magnification).
Fertilized white chicken eggs were incubated in a 37 °C incubator with constant humidity. On day 8, a small squared window was opened allowing the detachment of the growing CAM and shell. The opening was covered with an elastic bandage. […] The CAM was then sealed with a bandage and placed back in the incubator. CAMs were examined daily until day 12 (3 days), the vascularized membranes were then cut around the glass slide and fixed in 5% formalin. Images were taken with an Evos microscope at 40x and 100x magnification^9. Main blood vessel in the microscopic images of controls and samples were quantified by imageJ and analyzed for significant differences (n = 4).

VEGFR-2 [11] = target: T2, VEGFR-2; assay: cell-based; format: cell-based; details: for inhibition at 10 µM: MCF7; for VEGFR-2 pg/mL ± SEM MCF7: at 10 μM, control 258.70 ± 2.3
HCT116 3D-spheroid = HCT116 3D-spheroid at 50 μM, relative to control
[12] = MTT, 72 h incubation, HCT116 colon, read-out: IC50, μM ± SEM HCT116
[13] = log of observed IC50 (μM), HCT116, read-out: Log(observed property) (converted)

CCOP(=O)(OCC)N1C/C(=C\c2ccc(Cl)cc2)C(=O)C2(C1)C(c1ccc(Cl)cc1)CN(C)C21C(=O)Nc2ccc(F)cc21 (centres unmarked) [Compound 17i, Diethyl (E)-(5′′-(4-chlorobenzylidene)-4′-(4-chlorophenyl)-5-fluoro-1′-methyl-2,4′′-dioxodispiro[indoline-3,2′-pyrrolidine-3′,3′′-piperidin]-1′′-yl)phosphonate]
IC50 [1]: > 50 µM
selectivity index (SI) ([1]; IC50 against RPE1 compared to the tested cancer cell line(s), in words): high selectivity index
TNF-α % inhibition MCF7 (TNF-α [2]): 62.4%
TNF-α pg/mL (± SEM) MCF7 (TNF-α [2]): 31.27 ± 1.3 pg/mL
TNF-α pg/mL (± SEM) HCT116 (TNF-α [3]): 28.56 ± 0.9 pg/mL
1/(observed property) [4]: 0.07435
IC50 [4]: 13.5 ± 0.898 µM
SI (selectivity index) PaCa2 [4]: > 3.7
TNF-α inhibition fold of the standard ibuprofen (TNF-α [5]; 10 μM): 1.9 fold
TNF-α inhibition fold of the standard indomethacin (TNF-α [5]; 10 μM): 2.4 fold
TNF-α % inhibition PaCa2 (TNF-α [5]): 79.6%
TNF-α pg/mL (± SEM) PaCa2 (TNF-α [5]): 22.8 ± 1.6 pg/mL
inhibition at 10 µM (COX-2): 49.7 ± 1.9%
SI (selectivity index, COX-2/COX-1) (COX-2): 1.09
IC50 [6, 12]: 4.14 ± 0.042 µM
IC50 [6, 13]: 4.14 µM
SI (selectivity index) HCT116 [6]: > 12.1
inhibition at 10 µM (VEGFR-2 [7]): 86.9%
VEGFR-2 pg/mL ± SEM PaCa2 (VEGFR-2 [7]): 42.76 ± 0.7 pg/mL
inhibition at 10 µM (COX-1): 46.2 ± 2.4%
IC50 [8]: > 50 µM
inhibition at 10 µM (VEGFR-2 [9]): 74.4%
VEGFR-2 pg/mL ± SEM HCT116 (VEGFR-2 [9]): 81.40 ± 1.9 pg/mL
IC50 [10]: 4.81 ± 0.148 µM
SI (selectivity index) MCF7 [10]: > 10.4
% Inhibition of the blood vessels in CAM test (CAM blood vessel network): 52.3%
Diameter of blood vessel (μm ± SEM) (CAM blood vessel network; CAM test, control 459.7 ± 13.8): 219.3 ± 5.6 μm
inhibition at 10 µM (VEGFR-2 [11]): 80.9%
VEGFR-2 pg/mL ± SEM MCF7 (VEGFR-2 [11]): 49.50 ± 0.3 pg/mL

CCOP(=O)(OCC)N1C/C(=C\c2ccccc2)C(=O)C2(C1)C(c1ccccc1)CN(C)C21C(=O)Nc2ccc(C)cc21 (centres unmarked) [Compound 17d, Diethyl (E)-(5′′-benzylidene-1′,5-dimethyl-2,4′′-dioxo-4′-phenyldispiro[indoline-3,2′-pyrrolidine-3′,3′′-piperidin]-1′′-yl)phosphonate]
IC50 [1]: 17.9 ± 0.945 µM
TNF-α % inhibition MCF7 (TNF-α [2]): 0.1%
TNF-α pg/mL (± SEM) MCF7 (TNF-α [2]): 83.2 ± 4.5 pg/mL
TNF-α % inhibition HCT116 (TNF-α [3]): 1.0%
TNF-α pg/mL (± SEM) HCT116 (TNF-α [3]): 94.80 ± 2.5 pg/mL
1/(observed property) [4]: 0.06423
IC50 [4]: 15.6 ± 0.329 µM
SI (selectivity index) PaCa2 [4]: 1.2
TNF-α % inhibition PaCa2 (TNF-α [5]): 7.2%
TNF-α pg/mL (± SEM) PaCa2 (TNF-α [5]): 103.7 ± 4.2 pg/mL
inhibition at 10 µM (COX-2): 56.4 ± 1.9%
SI (selectivity index, COX-2/COX-1) (COX-2): 0.82
IC50 [6, 12]: 9.278 ± 0.084 µM
IC50 [6, 13]: 9.28 µM
SI (selectivity index) HCT116 [6]: 1.9
inhibition at 10 µM (VEGFR-2 [7]): 83.7%
VEGFR-2 pg/mL ± SEM PaCa2 (VEGFR-2 [7]): 53.42 ± 0.7 pg/mL
inhibition at 10 µM (COX-1): 51.8 ± 2.2%
IC50 [8]: 14.6 ± 0.27 µM
SI (selectivity index) A549 ([8]; IC50 of RPE1 normal cell/IC50 of A549): 1.2
inhibition at 10 µM (VEGFR-2 [9]): 72.5%
VEGFR-2 pg/mL ± SEM HCT116 (VEGFR-2 [9]): 87.40 ± 1.9 pg/mL
IC50 [10]: 5.78 ± 0.13 µM
SI (selectivity index) MCF7 [10]: 3.1
inhibition at 10 µM (VEGFR-2 [11]): 71.9%
VEGFR-2 pg/mL ± SEM MCF7 (VEGFR-2 [11]): 72.80 ± 1.2 pg/mL
%CT (± SEM), percentage cytotoxicity (HCT116 3D-spheroid): 64.1% and 64.1 ± 7.0%
